In this assay the target is T1, CCR2 (Homo sapiens, UniProt P41597).
T1 construct: host or cells: THP-1 human monocytic cells
T1 sequence (P41597 1-360 isoform P41597-2): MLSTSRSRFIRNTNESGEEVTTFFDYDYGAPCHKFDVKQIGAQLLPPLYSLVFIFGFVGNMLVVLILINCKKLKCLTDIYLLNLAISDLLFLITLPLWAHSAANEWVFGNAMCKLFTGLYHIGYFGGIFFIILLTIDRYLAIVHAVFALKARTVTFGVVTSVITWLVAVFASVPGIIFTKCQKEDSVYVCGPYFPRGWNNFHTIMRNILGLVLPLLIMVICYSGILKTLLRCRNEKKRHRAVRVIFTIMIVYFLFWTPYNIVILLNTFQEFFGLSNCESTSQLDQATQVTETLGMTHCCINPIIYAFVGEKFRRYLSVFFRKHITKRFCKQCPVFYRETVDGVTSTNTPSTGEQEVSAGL
Put plainly: MCP-1 Receptor Binding Assay in THP-1 Cells. Particulars: 0.5 nM 125I labeled MCP-1, 2 hours at 30° C., less polar isomer tested where stated, read-out: Inhibition of MCP-1 Binding IC50, CCR2 Binding. The essentials: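 Whole THP-1 cells incubated 2 h at 30 °C with 0.5 nM 125I-MCP-1 and varying concentrations of test compound; bound radioactivity counted after filter harvesting. Where no IC50 obtained, % inhibition given at 25 μM.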

Take `NC(=O)n1nc(NCC(=O)NC2CN(C3CCC(O)CC3)C2)c2cc(C(F)(F)F)ccc21` (centres unmarked) [Example 85, 3-({[1-(4-Hydroxy-cyclohexyl)-azetidin-3-ylcarbamoyl]-methyl}-amino)-5-trifluoromethyl-indazole-1-carboxylic acid amide]: the IC50 – broadly, the concentration that inhibits the measured activity by half – was found to be 530 nM. Next, `CC(C)(C)NC(=O)n1nc(NCC(=O)NC2CN(C3CCC(C#N)CC3)C2)c2cc(C(F)(F)F)ccc21` (centres unmarked) [Example 86, 3-({[1-(4-Cyano-cyclohexyl)-azetidin-3-ylcarbamoyl]-methyl}-amino)-5-trifluoromethyl-indazole-1-carboxylic acid tert-butylamide]: 750 nM; `N#CC1CCC(N2CC(NC(=O)CNc3nn(C(N)=O)c4ccc(C(F)(F)F)cc34)C2)CC1` (centres unmarked) [Example 87, 3-({[1-(4-Cyano-cyclohexyl)-azetidin-3-ylcarbamoyl]-methyl}-amino)-5-trifluoromethyl-indazole-1-carboxylic acid amide]: 520 nM. Next, `CCOC(=O)C1CCC(N2CC(NC(=O)CNc3nn(C(=O)NC(C)(C)C)c4ccc(C(F)(F)F)cc34)C2)CC1` (centres unmarked) [Example 88, 4-{3-[2-(1-tert-Butylcarbamoyl-5-trifluoromethyl-1H-indazol-3-ylamino)-acetylamino]-azetidin-1-yl}-cyclohexanecarboxylic acid ethyl ester]: 360 nM. The figure for `CCOC(=O)C1CCC(N2CC(NC(=O)CNc3nn(C(N)=O)c4ccc(C(F)(F)F)cc34)C2)CC1` (centres unmarked) [Example 89, 4-{3-[2-(1-Carbamoyl-5-trifluoromethyl-1H-indazol-3-ylamino)-acetylamino]-azetidin-1-yl}-cyclohexane carboxylic acid ethyl ester] is 56 nM; for `CC(C)NC(=O)n1nc(NCC(=O)NC2CN(C3CCC(c4ccccc4)CC3)C2)c2cc(C(F)(F)F)ccc21` (centres unmarked) [Example 90, 3-({[1-(4-Phenyl-cyclohexyl)-azetidin-3-ylcarbamoyl]-methyl}-amino)-5-trifluoromethyl-indazole-1-carboxylic acid isopropylamide] it is 29 nM; for `COc1ccc(C2CCC(N3CC(NC(=O)CNc4nn(C(=O)NC(C)C)c5ccc(C(F)(F)F)cc45)C3)CC2)cn1` (centres unmarked) [Example 91, 3-[({1-[4-(6-Methoxy-pyridin-3-yl)-cyclohexyl]-azetidin-3-ylcarbamoyl}-methyl)-amino]-5-trifluoromethyl-indazole-1-carboxylic acid isopropylamide] it is 14 nM.

Turning to `CC(C)NC(=O)n1nc(NCC(=O)NC2CN(C3CCC(C(C)C)CC3)C2)c2cc(C(F)(F)F)ccc21` (centres unmarked) [Example 92, 3-({[1-(4-Isopropyl-cyclohexyl)-azetidin-3-ylcarbamoyl]-methyl}-amino)-5-trifluoromethyl-indazole-1-carboxylic acid isopropylamide], the IC50 turned out to be 1600 nM. Next, `CC(C)NC(=O)n1nc(NCC(=O)NC2CN(C3CCC(C4CCCCC4)CC3)C2)c2cc(C(F)(F)F)ccc21` (centres unmarked) [Example 93, 3-{[(1-Bicyclohexyl-4-yl-azetidin-3-ylcarbamoyl)-methyl]-amino}-5-trifluoromethyl-indazole-1-carboxylic acid isopropylamide]: 3100 nM; `C=CCn1nc(NCC(=O)NC2CN(C3CCC(C(=O)OCC)CC3)C2)c2cc(C(F)(F)F)ccc21` (centres unmarked) [Example 94, 4-{3-[2-(1-Allyl-5-trifluoromethyl-1H-indazol-3-ylamino)-acetylamino]-azetidin-1-yl}-cyclohexanecarboxylic acid ethyl ester]: 53 nM. The figure for `C=CCn1nc(NCC(=O)NC2CN(C3CCC(C4CCCCC4)CC3)C2)c2cc(C(F)(F)F)ccc21` (centres unmarked) [Example 95, 2-(1-Allyl-5-trifluoromethyl-1H-indazol-3-ylamino)-N-(1-bicyclohexyl-4-yl-azetidin-3-yl)-acetamide] is 3600 nM; for `COc1cccc(C2(O)CCC(N3CC(NC(=O)CNc4nn(Cc5ccccc5)c5ccc(C(F)(F)F)cc45)C3)CC2)n1` (centres unmarked) [Example 96, 2-(1-Benzyl-5-trifluoromethyl-1H-indazol-3-ylamino)-N-{1-[4-hydroxy-4-(6-methoxy-pyridin-2-yl)-cyclohexyl]-azetidin-3-yl}-acetamide] it is 270 nM.

Turning to `CCOC(=O)C1CCC(N2CC(NC(=O)CNc3nn(Cc4ccccc4)c4ccc(C(F)(F)F)cc34)C2)CC1` (centres unmarked) [Example 97, 4-{3-[2-(1-Benzyl-5-trifluoromethyl-1H-indazol-3-ylamino)-acetylamino]-azetidin-1-yl}-cyclohexane carboxylic acid ethyl ester], the half-maximal inhibitory concentration (IC50) was 170 nM.

For the compound `CC(C)C1CCC(N2CC(NC(=O)CNc3nn(Cc4ccccc4)c4ccc(C(F)(F)F)cc34)C2)CC1` (centres unmarked) [Example 98, 2-(1-Benzyl-5-trifluoromethyl-1H-indazol-3-ylamino)-N-[1-(4-isopropyl-cyclohexyl)-azetidin-3-yl]-acetamide], the 50% inhibitory concentration (IC50) was found to be 5900 nM.

Take `CCOC(=O)C1CCC(N2CC(NC(=O)CNc3nn(S(C)(=O)=O)c4ccc(C(F)(F)F)cc34)C2)CC1` (centres unmarked) [Example 99, 4-{3-[2-(1-Methanesulfonyl-5-trifluoromethyl-1H-indazol-3-ylamino)-acetylamino]-azetidin-1-yl}-cyclohexane carboxylic acid ethyl ester]: the IC50 amounted to 230 nM. Next, `COc1ccc(C2CCC(N3CC(NC(=O)CNc4nn(S(C)(=O)=O)c5ccc(C(F)(F)F)cc45)C3)CC2)cn1` (centres unmarked) [Example 100, 2-(1-Methanesulfonyl-5-trifluoromethyl-1H-indazol-3-ylamino)-N-{1-[4-(6-methoxy-pyridin-3-yl)-cyclohexyl]-azetidin-3-yl}-acetamide]: 3700 nM; `Cc1ccc(C2(O)CCC(N3CC(NC(=O)CNc4nn(C)c5ccc(OCC(F)(F)F)cc45)C3)CC2)cn1` (centres unmarked) [Example 101]: 1100 nM.

`COc1ccc(C2(O)CCC(N3CC(NC(=O)CNc4nn(C)c5ccc(C(F)(OC)C(F)(F)F)cc45)C3)CC2)cn1` (centres unmarked) [Example 102, N-{1-[4-Hydroxy-4-(6-methoxy-pyridin-3-yl)-cyclohexyl]-azetidin-3-yl}-2-[1-methyl-5-(1,2,2,2-tetrafluoro-1-methoxy-ethyl)-1H-indazol-3-ylamino]-acetamide]: the concentration for half-maximal inhibition (IC50) came to 33 nM. The figure for `COC(F)(c1ccc2c(c1)c(NCC(=O)NC1CN(C3CCC(O)(c4ccc(C)nc4)CC3)C1)nn2C)C(F)(F)F` (centres unmarked) [Example 103, N-{1-[4-Hydroxy-4-(6-methyl-pyridin-3-yl)-cyclohexyl]-azetidin-3-yl}-2-[1-methyl-5-(1,2,2,2-tetrafluoro-1-methoxy-ethyl)-1H-indazol-3-ylamino]-acetamide] is 22 nM; for `O=C(CNc1n[nH]c2ccc(C(F)(F)F)nc12)NC1CN([C@H]2CC[C@@](O)(c3cncs3)CC2)C1` [Example 104, N-(1-((1R,4R)-4-hydroxy-4-(thiazol-5-yl)cyclohexyl)azetidin-3-yl)-2-((5-(trifluoromethyl)-1H-pyrazolo[4,3-b]pyridin-3-yl)amino)acetamide] it is 230 nM.

The values are drawn from patent US8436023B2, “Cyclohexyl-azetidinyl antagonists of CCR2” (Janssen Pharmaceutica N.V., priority 2010, dated 2013).
